How the values were obtained:
Assay in all cases: Preemergent activity
Type in all cases: in vivo
Conditions in all cases: 0.28 kgs/hectare, seeds
[1] = test system: sugarbeets
Description: (§1) In a representative operation, 2-[4-(2-fluoro-4-trifluoromethylphenoxy)phenoxy]propionic acid methyl ester, to be utilized in a series of tests, is dissolved in acetone to one half of the final volume (twice the final concentration) to be used and the acetone solution in each case is admixed with an equal volume of water containing 0.1 percent by weight of Tween-20 surface active material (Tween-20 is a trademark of Atlas Chemical Company). The composition, generally in the nature of an emulsion, was employed to treat separate respective seed beds of sandy loam soil of good nutrient content wherein each seed bed contained separate groups of good viable seeds, each group being of one of a known plant species. The various beds were positioned side by side and exposed to substantially identical conditions of temperature and light. Each bed was maintained so as to prevent any interaction with the test compound in different seed beds. Each seed bed was treated with the composition as a spray employing conventional spraying equipment to deposit a predetermined amount of the compound uniformly throughout the surface of the bed. Another seed bed was treated only with the acetone-Tween-20 water mixture with no chemical added to serve as a control. After treatment, the seed beds were maintained for two weeks under greenhouse conditions conducive for good plant growth and watered as necessary. Control refers to the reduction in growth of the test species in the presence of the test chemical relative to the observed growth of the same species in the absence of the test chemical.
(§2) Substantially the same procedures described in Example C were repeated using as the active ingredients

[2] = test system: velvet leaf
Description: as §1, §2

[3] = test system: jimson weed
Description: as §1, §2

[4] = test system: rape
Description: as §1, §2

Measured: phytotoxic effect

COC(=O)C(C)Oc1ccc(Oc2ccc(C(F)(F)F)cc2F)cc1 (stereo not shown) [2-[4-(2-fluoro-4-trifluoromethylphenoxy)phenoxy]propionic acid methyl ester]
inactive: all assays above
